Results reported in US20240317708A1, “INHIBITORS OF TRANSGLUTAMINASES” (ZEDIRA GMBH, priority 2021, published 2024).

Tests used:
[1] = target: T1, recombinant human transglutaminase 2 (Homo sapiens, UniProt P21980); assay: Transglutaminase assay (dansylcadaverine incorporation into dimethylcasein, DCC-assay); format: biochemical; details: recombinant human TG2 10 nM, dansylcadaverine/dimethylcasein, 37° C.
T1 construct: purchased Zedira T022
T1 sequence (P21980 1-687): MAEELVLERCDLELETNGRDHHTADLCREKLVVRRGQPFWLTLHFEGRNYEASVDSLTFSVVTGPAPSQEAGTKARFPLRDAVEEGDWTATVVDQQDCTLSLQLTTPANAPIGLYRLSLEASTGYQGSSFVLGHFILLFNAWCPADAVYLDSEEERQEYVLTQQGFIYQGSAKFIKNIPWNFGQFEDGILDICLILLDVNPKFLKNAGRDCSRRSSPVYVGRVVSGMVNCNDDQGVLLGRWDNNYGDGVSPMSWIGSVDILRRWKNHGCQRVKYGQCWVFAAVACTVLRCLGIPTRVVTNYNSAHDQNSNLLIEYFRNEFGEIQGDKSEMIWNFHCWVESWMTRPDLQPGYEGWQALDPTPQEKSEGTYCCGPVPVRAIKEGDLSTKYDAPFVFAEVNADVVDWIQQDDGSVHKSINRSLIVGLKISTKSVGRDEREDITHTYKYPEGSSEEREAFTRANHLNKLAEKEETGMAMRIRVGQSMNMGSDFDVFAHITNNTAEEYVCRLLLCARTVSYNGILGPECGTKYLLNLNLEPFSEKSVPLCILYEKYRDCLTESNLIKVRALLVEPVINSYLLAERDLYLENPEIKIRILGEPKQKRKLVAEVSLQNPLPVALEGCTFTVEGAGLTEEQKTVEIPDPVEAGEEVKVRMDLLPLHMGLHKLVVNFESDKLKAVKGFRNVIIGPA
Procedure, shortened: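 IC50 derived from fluorescence slope between 20 and 30 min (λex 330 nm, λem 500 nm, 37 °C), expressed relative to a 2% DMSO control. Reaction: 10 nM recombinant human TG2, 4 μM dimethylcasein, 16.7 μM dansylcadaverine, 10 mM CaCl2 and glutathione, pH 8.0.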

[2] = Log D shake flask method (octanol / PBS pH 7.4, HPLC); format: physicochemical; details: octanol/phosphate-buffered saline (PBS); octanol / PBS pH 7.4, shake flask
Protocol: In order to classify the inventive compounds according to their lipophilicity, Log D values (distribution coefficient) were determined by means of the well-established shake flask method, measuring the partition of a compound between an octanol and phosphate-buffered saline (PBS, pH 7.4) by HPLC.

[3] = Caco-2 permeability assay (CacoReady kit); format: in vitro ADME; details: human
Procedure, shortened: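 Read-out is the permeability coefficient Papp, obtained from transport across a Caco-2 barrier prepared from a ready-to-use kit following the manufacturer's instructions.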

Compound: COC(=O)/C=C/CC[C@H](NC(=O)c1oc2ccccc2c1C)C(=O)Nc1cccn(CC(=O)NC23CC4CC(CC(F)(C4)C2)C3)c1=O [III-51, (S,E)-methyl 7-(1-(2-(3-fluoroadamantan-1-amino)-2-oxoethyl)-2-oxo-1,2-dihydropyridin-3-ylamino)-6-(3-methylbenzofuran-2-carboxamido)-7-oxohept-2-enoate]
- IC50 [1]: < 25 nM
- logD [2]: 3 to 5
- Papp [3]: 1 to 10 ×10⁻⁶ cm/s

Compound: COC(=O)/C=C/CC[C@H](NC(=O)[C@H]1CCNC1)C(=O)Nc1cccn(CC(=O)NC2C3CC4CC(C3)CC2C4)c1=O (stereo partly drawn) [III-26, (S,E)-methyl 7-(1-(2-(2-adamantylamino)-2-oxoethyl)-2-oxo-1,2-dihydropyridin-3-ylamino)-7-oxo-6-((S)-pyrrolidine-3-carboxamido)hept-2-enoate]
- IC50 [1]: 25 to 250 nM
- logD [2]: 1 to 3
- Papp [3]: 1 to 10 ×10⁻⁶ cm/s

Compound: COC(=O)/C=C/CC[C@H](NC(=O)c1oc2ccccc2c1C)C(=O)Nc1cccn(CC(=O)NC2C3CCC2CC3)c1=O (stereo partly drawn) [III-65, (S,E)-methyl 7-(1-(2-(bicyclo[2.2.1]heptan-7-ylamino)-2-oxoethyl)-2-oxo-1,2-dihydropyridin-3-ylamino)-6-(3-methylbenzofuran-2-carboxamido)-7-oxohept-2-enoate]
- IC50 [1]: < 25 nM
- logD [2]: 3 to 5
- Papp [3]: 1 to 10 ×10⁻⁶ cm/s

Compound: COC(=O)/C=C/CC[C@H](NC(=O)c1c[nH]c(C(N)=O)c1)C(=O)Nc1cccn(CC(=O)NC23CC(C2)C3)c1=O [III-163, (S,E)-methyl 7-(1-(2-(bicyclo[1.1.1]pentan-1-ylamino)-2-oxoethyl)-2-oxo-1,2-dihydropyridin-3-ylamino)-6-(5-carbamoyl-1H-pyrrole-3-carboxamido)-7-oxohept-2-enoate]
- IC50 [1]: 250 to 1500 nM
- logD [2]: < 1
- Papp [3]: < 1 ×10⁻⁶ cm/s

Compound: COC(=O)/C=C/CC[C@H](NC(=O)c1snnc1CO)C(=O)Nc1cccn(CC(=O)NC2C3CC4CC(C3)CC2C4)c1=O (stereo partly drawn) [III-175, (S,E)-methyl 6-(4-(hydroxymethyl)-1,2,3-thiadiazole-5-carboxamido)-7-(1-(2-(2-adamantylamino)-2-oxoethyl)-2-oxo-1,2-dihydropyridin-3-ylamino)-7-oxohept-2-enoate]
- IC50 [1]: 250 to 1500 nM
- logD [2]: 1 to 3
- Papp [3]: < 1 ×10⁻⁶ cm/s

Compound: CCC12CC3CC(C1)CC(NC(=O)Cn1cccc(NC(=O)[C@H](CC/C=C/C(=O)OC)NC(=O)c4oc5ccccc5c4C)c1=O)(C3)C2 [III-48, (S,E)-methyl 7-(1-(2-(3-ethyladamantan-1-amino)-2-oxoethyl)-2-oxo-1,2-dihydropyridin-3-ylamino)-6-(3-methylbenzofuran-2-carboxamido)-7-oxohept-2-enoate]
- IC50 [1]: 25 to 250 nM
- logD [2]: 3 to 5
- Papp [3]: 1 to 10 ×10⁻⁶ cm/s

Compound: COC(=O)/C=C/CC[C@H](NC(=O)c1snnc1C)C(=O)Nc1cccn(CC(=O)N[C@@H]2C[C@H]3CC[C@@H]2C3)c1=O [III-110, (S,E)-methyl 7-(1-(2-((1R,2R,4S)-bicyclo[2.2.1]heptan-2-ylamino)-2-oxoethyl)-2-oxo-1,2-dihydropyridin-3-ylamino)-6-(4-methyl-1,2,3-thiadiazole-5-carboxamido)-7-oxohept-2-enoate]
- IC50 [1]: < 25 nM
- logD [2]: 1 to 3
- Papp [3]: < 1 ×10⁻⁶ cm/s

Compound: COC(=O)/C=C/CC[C@H](NC(=O)c1ccc2occc2c1)C(=O)Nc1cccn(CC(=O)NC2C3CC4CC2CC(NC(C)=O)(C4)C3)c1=O (stereo partly drawn) [III-165, (S,E)-methyl 6-(benzofuran-5-carboxamido)-7-(1-(2-(1-acetylamino-4-aminoadamantane)-2-oxoethyl)-2-oxo-1,2-dihydropyridin-3-ylamino)-7-oxohept-2-enoate]
- IC50 [1]: 25 to 250 nM
- logD [2]: 1 to 3
- Papp [3]: < 1 ×10⁻⁶ cm/s

Compound: Cc1cc(C(=O)N[C@@H](CC/C=C/C(=O)Nc2ccccc2)C(=O)Nc2cccn(CC(=O)NC34CC(C3)C4)c2=O)c(C)o1 [III-153, (S,E)-N7-(1-(2-(bicyclo[1.1.1]pentan-1-ylamino)-2-oxoethyl)-2-oxo-1,2-dihydropyridin-3-yl)-6-(2,5-dimethylfuran-3-carboxamido)-N1-phenylhept-2-enediamide]
- IC50 [1]: 25 to 250 nM
- logD [2]: 1 to 3
- Papp [3]: 1 to 10 ×10⁻⁶ cm/s

Compound: COC(=O)/C=C/CC[C@H](NC(=O)c1oc2ccccc2c1C)C(=O)Nc1cccn(CC(=O)NC23CC4CC(C2)CC(C(F)(F)F)(C4)C3)c1=O [III-49, (S,E)-methyl 7-(1-(2-(3-trifluoromethyladamantan-1-amino)-2-oxoethyl)-2-oxo-1,2-dihydropyridin-3-ylamino)-6-(3-methylbenzofuran-2-carboxamido)-7-oxohept-2-enoate]
- IC50 [1]: 25 to 250 nM
- logD [2]: 3 to 5
- Papp [3]: 1 to 10 ×10⁻⁶ cm/s

Compound: C=CCNC(=O)/C=C/CC[C@H](NC(=O)c1ccc2cnccc2n1)C(=O)Nc1cccn(CC(=O)NC23CC(C2)C3)c1=O [III-150, (S,E)-N1-allyl-N7-(1-(2-(bicyclo[1.1.1]pentan-1-ylamino)-2-oxoethyl)-2-oxo-1,2-dihydropyridin-3-yl)-6-(1,6-naphthyridine-2-carboxamido)hept-2-enediamide]
- IC50 [1]: 25 to 250 nM
- logD [2]: < 1
- Papp [3]: < 1 ×10⁻⁶ cm/s

Compound: COC(=O)/C=C/CC[C@H](NC(=O)c1cc2ccccc2s1)C(=O)Nc1cccn(CC(=O)NC2C3CC4CC(C3)CC2C4)c1=O (stereo partly drawn) [III-5, (S,E)-methyl 6-(benzo[b]thiophene-2-carboxamido)-7-(1-(2-(2-adamantylamino)-2-oxoethyl)-2-oxo-1,2-dihydropyridin-3-ylamino)-7-oxohept-2-enoate]
- IC50 [1]: < 25 nM
- logD [2]: 3 to 5
- Papp [3]: 1 to 10 ×10⁻⁶ cm/s

Compound: COC(=O)/C=C/CC[C@H](NC(=O)c1cccnc1)C(=O)Nc1cccn(CC(=O)NC2C3CC4CC(C3)CC2C4)c1=O (stereo partly drawn) [III-83, (S,E)-methyl 7-(1-(2-(2-adamantylamino)-2-oxoethyl)-2-oxo-1,2-dihydropyridin-3-ylamino)-6-(nicotinamido)-7-oxohept-2-enoate]
- IC50 [1]: < 25 nM
- logD [2]: 3 to 5
- Papp [3]: < 1 ×10⁻⁶ cm/s

Compound: COC(=O)/C=C/CC[C@H](NC(=O)c1snnc1C)C(=O)Nc1cccn(CC(=O)NC23CC4CC(C)(CC(C)(C4)C2)C3)c1=O [III-112, (S,E)-methyl 7-(1-(2-(3,5-dimethyladamantane-1-amino)-2-oxoethyl)-2-oxo-1,2-dihydropyridin-3-ylamino)-6-(4-methyl-1,2,3-thiadiazole-5-carboxamido)-7-oxohept-2-enoate]
- IC50 [1]: < 25 nM
- logD [2]: 1 to 3
- Papp [3]: < 1 ×10⁻⁶ cm/s

Compound: COC(=O)/C=C/CC[C@H](NC(=O)c1cccnn1)C(=O)Nc1cccn(CC(=O)NC2C3CC4CC(C3)CC2C4)c1=O (stereo partly drawn) [III-86, (S,E)-methyl 7-(1-(2-(2-adamantylamino)-2-oxoethyl)-2-oxo-1,2-dihydropyridin-3-ylamino)-7-oxo-6-(pyridazine-3-carboxamido)hept-2-enoate]
- IC50 [1]: < 25 nM
- logD [2]: 1 to 3
- Papp [3]: < 1 ×10⁻⁶ cm/s

Compound: C=CCNC(=O)/C=C/CC[C@H](NC(=O)c1nccc2cnccc12)C(=O)Nc1cccn(CC(=O)NC23CC(C2)C3)c1=O [III-151, (S,E)-N1-allyl-N7-(1-(2-(bicyclo[1.1.1]pentan-1-ylamino)-2-oxoethyl)-2-oxo-1,2-dihydropyridin-3-yl)-6-(2,6-naphthyridine-1-carboxamido)hept-2-enediamide]
- IC50 [1]: 250 to 1500 nM
- logD [2]: < 1
- Papp [3]: < 1 ×10⁻⁶ cm/s

Compound: COC(=O)/C=C/CC[C@H](NC(=O)c1coc2ccccc12)C(=O)Nc1cccn(CC(=O)NC2C3CC4CC(C3)CC2C4)c1=O (stereo partly drawn) [III-106, (S,E)-methyl 6-(benzofuran-3-carboxamido)-7-(1-(2-(2-adamantylamino)-2-oxoethyl)-2-oxo-1,2-dihydropyridin-3-ylamino)-7-oxohept-2-enoate]
- IC50 [1]: 25 to 250 nM
- logD [2]: 3 to 5
- Papp [3]: 1 to 10 ×10⁻⁶ cm/s

Compound: COC(=O)/C=C/CC[C@H](NC(=O)c1ccn(C)n1)C(=O)Nc1cccn(CC(=O)NC2C3CC4CC(C3)CC2C4)c1=O (stereo partly drawn) [III-129, (S,E)-methyl 7-(1-(2-(2-adamantylamino)-2-oxoethyl)-2-oxo-1,2-dihydropyridin-3-ylamino)-6-(1-methyl-1H-pyrazole-3-carboxamido)-7-oxohept-2-enoate]
- IC50 [1]: 25 to 250 nM
- logD [2]: 1 to 3
- Papp [3]: < 1 ×10⁻⁶ cm/s

Compound: COC(=O)/C=C/CC[C@H](NC(=O)c1cncn1C)C(=O)Nc1cccn(CC(=O)NC23CC4CC(C)(CC(C)(C4)C2)C3)c1=O [III-88, (S,E)-methyl 7-(1-(2-(3,5-dimethyladamantane)-2-oxoethyl)-2-oxo-1,2-dihydropyridin-3-ylamino)-6-(1-methyl-1H-imidazole-5-carboxamido)-7-oxohept-2-enoate]
- IC50 [1]: < 25 nM
- logD [2]: 1 to 3
- Papp [3]: < 1 ×10⁻⁶ cm/s
